According to paper PMC6681348 (Biomolecules, 2019):
“Also recorded” adds a separate entry of the source. Read-outs that look alike come from different tables or passages of the source. Positions of bridges follow the written chain, without caps; N, C: chain ends. Residues, ends and D or L forms follow the SMILES beside them. No end group written: not given here.

Columns and labels:
[1] = target: trypsin; conditions: read-out: Ki, trypsin inhibition; cited from earlier work
Excerpt: Odorous frogs are distributed in East Asia and the surrounding areas, and they are named because of their smelly skin secretion, which plays a fundamental role in defensive systems. To date, hundreds of functional peptides have been isolated from Odorrana skin secretion, not only many potent antimicrobial peptides but also trypsin inhibitors. […] Combined with the data obtained from trypsin cleavage, each segment of both Kunitzin-OV and Kunitzin-RE was cleaved by trypsin via typical cleavage site Lys and Arg. […] Therefore, we assumed that the Lys close to the region of the protease-binding loop could act as a competitive position for trypsin activity ...

[2] = target: chymotrypsin; test: Chymotrypsin inhibition assay; format: biochemical; conditions: substrate Succinyl-Ala-Ala-Pro-Phe-NHMec, duplicates
Protocol: (§1) The inhibitory activity of peptides towards trypsin and chymotrypsin was tested the same as detailed in Wang’s study. Peptides were initially prepared in a range of 10^−3–10^−6 M and then diluted to 16 concentrations. Each dilution was tested in duplicates. Additionally, Phe-Pro-Arg-AMC and Succinyl-Ala-Ala-Pro-Phe-NHMec (obtained from Bachem, UK) were served as substrates for trypsin and chymotrypsin, respectively.

[3] = tested on: trypsin; test: Trypsin inhibition assay; format: biochemical; conditions: substrate Phe-Pro-Arg-AMC; for trypsin inhibitory activity (in words): 16 concentrations, duplicates
Protocol: as §1

[4] = tested on: trypsin; test: trypsin cleavage; conditions: cited from earlier work
[5] = tested on: horse red blood cells; conditions: horse red blood cells 4% v/v, 37 °C, 2 h, concentrations up to 512 µM; 1% Triton X-100 = 100% haemolysis
Protocol: As described in the previous study, a suspension of horse red blood cells (4%, v/v) (TCS Biosciences, Botolph Claydon, Buckingham, UK) was incubated with peptides of the concentration range of 1 µM to 512 µM at 37 °C for 2 h to determine the peptide haemolytic activity. The positive control employed 1% TritonX-100 (Sigma, UK).

[6] = tested on: Escherichia coli (NCTC 10418); conditions: MHB, broth dilution, 1-512 µM two-fold, 5 × 10^5 cfu/mL, seven replicates
Protocol: (§2) Staphylococcus aureus (NCTC 10788), Escherichia coli (NCTC 10418), and Candida albicans (NCPF 1467) were applied in the antimicrobial test. They all were cultured in Mueller-Hinton Broth (MHB). […] Peptides were incubated with subcultured bacteria cells (5 × 10^5 cfu/mL) and each concentration was performed in seven replicates.

[7] = tested on: Staphylococcus aureus (NCTC 10788); conditions: MHB, broth dilution, 1-512 µM two-fold, 5 × 10^5 cfu/mL, seven replicates
Protocol: as §2

[8] = tested on: Candida albicans (NCPF 1467); conditions: MHB, broth dilution, 1-512 µM two-fold, 5 × 10^5 cfu/mL, seven replicates
Protocol: as §2

[9] = tested on: trypsin; test: trypsin cleavage assay; conditions: up to 20 min
[10] = tested on: all tested microbes; conditions: single loop synthesized alone; cited from earlier work
Excerpt: The results just corresponded to the physicochemical properties of these two peptides.

## AVNIPFKVHFRCKAAFC (disulfide 12-17 (inferred)) [OGTI]
[1]
  Ki: 400 nM

## CC(C)C[C@H](NC(=O)[C@H](C)N)C(=O)N[C@@H](CCCCN)C(=O)N[C@@H](Cc1ccc(O)cc1)C(=O)N1CCC[C@H]1C(=O)N[C@@H](Cc1ccccc1)C(=O)N[C@@H](CCCNC(=N)N)C(=O)N[C@H]1CSSC[C@@H](C(=O)O)NC(=O)[C@H](Cc2ccccc2)NC(=O)[C@H](C)NC(=O)[C@H](C)NC(=O)[C@H](Cc2ccccc2)NC1=O [F^9-Kunitzin-OV] (H-ALKYPFRCFAAFC-OH; disulfide 8-13 (inferred); N-terminus and C-terminus assumed)
[2]; 16 concentrations from 10^-3-10^-6 M, Morrison plot, read-out: Ki, chymotrypsin inhibitory activity
  Ki: 11800 ± 2090 nM
[2]; 16 concentrations
  chymotrypsin inhibitory activity (in words): optimized chymotrypsin inhibitory activity
[3]
  trypsin inhibitory activity (in words): undetected; also recorded: disappeared; also recorded: vanished
[3]; listed as site-substituted analogue
  trypsin inhibitory activity (in words): eliminated

## AAKIILNPKFRCKAAFC
[4]
  not cleaved: this did not happen to Kunitzin-RE

## CC(C)C[C@H](NC(=O)[C@H](C)N)C(=O)N[C@@H](CCCCN)C(=O)N[C@@H](Cc1ccc(O)cc1)C(=O)N1CCC[C@H]1C(=O)N[C@@H](Cc1ccccc1)C(=O)N[C@@H](CCCNC(=N)N)C(=O)N[C@H]1CSSC[C@@H](C(=O)O)NC(=O)[C@H](Cc2ccccc2)NC(=O)[C@H](C)NC(=O)[C@H](C)NC(=O)[C@H](CCCCN)NC1=O [Kunitzin-OV] (H-ALKYPFRCKAAFC-OH; disulfide 8-13)
[5]
  haemolytic activity: less than 10%
[6]
  Minimum Inhibitory Concentration E. coli: 512 µM
[7]
  Minimum Inhibitory Concentration S. aureus: 512 µM
[8]
  Minimum Inhibitory Concentration C. albicans: 512 µM

## ALKYPFRCKAAFC
[9]
  fragment found: ALKYPFR, first_seen, 0 min

## -CKAAFC- (disulfide) [single disulfide loop of kunitzins synthesized alone by Chen and colleagues]
[10]
  antimicrobial activity (in words): no activity was observed

B1: ovomucoid inhibitor (chicken): chicken egg white trypsin inhibitor Type III-O, more than 200 amino acid residues, served as a contrast (protein, UniProt P01005 25-210, looked up)
Ovomucoid: AEVDCSRFPNATDKEGKDVLVCNKDLRPICGTDGVTYTNDCLLCAYSIEFGTNISKEHDGECKETVPMNCSSYANTTSEDGKVMVLCNRAFNPVCGTDGVTYDNECLLCAHKVEQGASVDKRHDGGCRKELAAVSVDCSEYPKPDCTAEDRPLCGSDNKTYGNKCNFCNAVVESNGTLTLSHFGKC
[3]
  trypsin inhibitory activity (in words): more potent inhibitory activity than Kunitzin-OV
[3]; listed as chicken egg white trypsin inhibitor Type III-O
  trypsin inhibitory activity (in words): faster and stronger inhibitory efficacy on trypsin than Kunitzin-OV
[3]; Morrison plot, contrast inhibitor
  Ki: 3.49 ± 0.505 nM
